PMC9967275, “Screening the Pathogen Box to Discover and Characterize New Cruzain and TbrCatL Inhibitors” (Pathogens, 2023)
Read-outs that look alike come from different tables or passages of the source.

What was measured:
cruzain = cruzain (Trypanosoma cruzi, UniProt P25779); test: biochemical;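 on Cruzain 0’ Inhibition: at 5 µM compound concentration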;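 on Cruzain 10’ Inhibition: at 5 µM compound concentration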;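 on Cruzain Inhibition 0’: at 5 µM compound concentration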;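 on Cruzain Inhibition 10’: at 5 µM compound concentration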
Method in brief: (§1)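 Recombinant enzymes assayed by Z-Phe-Arg-AMC cleavage at 25 °C, fluorescence 340/440 nm over 5–7 min, with 10 min or no enzyme–compound preincubation.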

TbrCatL = biological target: T1, TbrCatL (Trypanosoma brucei rhodesiense, UniProt Q95PM0); test: TbrCatL enzymatic inhibition assay (cleavage of fluorogenic substrate Z-FR-AMC); type: biochemical; conditions: for TbrCatL 0’ Inhibition / TbrCatL 10’ Inhibition: sheet "Screening results";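 on TbrCatL 0’ Inhibition: at 5 µM compound concentration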;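 on TbrCatL 10’ Inhibition: at 5 µM compound concentration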;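 on TbrCatL Inhibition 0’: at 5 µM compound concentration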;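 on TbrCatL Inhibition 10’: at 5 µM compound concentration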
T1 construct: Conor Caffrey (University of California San Diego)
Method in brief: as §1

[1] = 0’ (pre-incubation time), sheet "Screening results"
[2] = 10’ (pre-incubation time), sheet "Screening results"
[3] = 0’ (pre-incubation time), Pathogen Box screening results
[4] = 10’ (pre-incubation time), Pathogen Box screening results
[5] = 0’ (no pre-incubation), sheet Screening results
[6] = 10’ (pre-incubation), sheet Screening results

T1 sequence (Q95PM0 entry or part of it): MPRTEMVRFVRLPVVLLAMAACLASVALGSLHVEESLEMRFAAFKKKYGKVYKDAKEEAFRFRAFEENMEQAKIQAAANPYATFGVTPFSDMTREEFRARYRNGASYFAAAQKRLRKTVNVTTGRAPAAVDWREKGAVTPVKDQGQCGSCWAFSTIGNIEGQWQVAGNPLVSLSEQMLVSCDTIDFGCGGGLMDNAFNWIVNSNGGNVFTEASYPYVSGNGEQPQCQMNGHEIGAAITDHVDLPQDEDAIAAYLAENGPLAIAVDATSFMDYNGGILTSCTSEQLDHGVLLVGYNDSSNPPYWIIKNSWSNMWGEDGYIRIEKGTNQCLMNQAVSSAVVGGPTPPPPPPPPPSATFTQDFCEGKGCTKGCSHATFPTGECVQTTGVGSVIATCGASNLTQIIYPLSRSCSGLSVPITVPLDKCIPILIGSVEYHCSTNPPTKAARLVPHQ
Sequence of cruzain (P25779 123-337 limits assumed): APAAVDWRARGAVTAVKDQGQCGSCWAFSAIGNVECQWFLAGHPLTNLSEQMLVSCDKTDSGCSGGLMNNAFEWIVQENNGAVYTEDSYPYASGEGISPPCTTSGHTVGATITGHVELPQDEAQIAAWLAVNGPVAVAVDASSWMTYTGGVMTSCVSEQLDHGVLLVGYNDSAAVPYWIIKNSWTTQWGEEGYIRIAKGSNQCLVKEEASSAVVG

| SMILES | Cruzain 0’ Inhibition (cruzain; [1]) | Cruzain 10’ Inhibition (cruzain; [2]) | TbrCatL 0’ Inhibition (TbrCatL; 0’ (pre-incubation time)) | TbrCatL 10’ Inhibition (TbrCatL; 10’ (pre-incubation time)) | further results |
| --- | --- | --- | --- | --- | --- |
| c1ccc(Oc2ccc(-c3cncc(-c4ccc5[nH]ccc5c4)n3)cc2)cc1 [MMV688178] | -6% | -6% | -10% | -21% | – |
| Cc1nn(C)c(C)c1NS(=O)(=O)c1c(Cl)cc(-c2ccnc(N3CCNCC3)c2)cc1Cl [MMV688180] | -4% | 10% | -7% | 28% | – |
| C[C@]1(COc2ccc(N3CCC(Oc4ccc(OC(F)(F)F)cc4)CC3)cc2)Cn2cc([N+](=O)[O-])nc2O1 [MMV688262] | -0.1% | -0.4% | 0.7% | -1.4% | – |
| COc1ccc(-c2cnc3cnc(-c4cccc(OC(C)C)c4)cn23)cc1 [MMV688270] | -4% | 5% | -8% | -8% | – |
| N=C(N)Nc1ccc(-c2ccc(-c3ccc(NC(=N)N)c(Cl)c3)o2)cc1Cl [MMV688271] | – | – | – | – | inhibition at 5 µM (cruzain; read-out: Cruzain 0’ Inhibition, 0’ (pre-incubation time), sheet "Screening results"): 83%; inhibition at 5 µM (cruzain; read-out: Cruzain 10’ Inhibition, 10’ (pre-incubation time), sheet "Screening results"): 50%; inhibition at 5 µM (cruzain; read-out: Inhibition at 5 µM (Mean ± SEM %) Cruzain 0′, 5 µM, no pre-incubation, initial screening): 83 ± 10%; inhibition at 5 µM (cruzain; read-out: Inhibition at 5 µM (Mean ± SEM %) Cruzain 10′ inc, 5 µM, 10′ pre-incubation, initial screening): 50 ± 4%; inhibition at 5 µM (cruzain; read-out: Inhibition of cruzain or TbrCatL (either enzyme) in the initial screening, 5 µM, either cruzain or TbrCatL, with or without pre-incubation): ≥ 60%; inhibition at 5 µM (TbrCatL; read-out: Inhibition at 5 µM (Mean ± SEM %) TbrCatL 0′): 53 ± 5%; inhibition at 5 µM (TbrCatL; read-out: Inhibition at 5 µM (Mean ± SEM %) TbrCatL 10′ inc): 43 ± 1%; inhibition at 5 µM (TbrCatL; read-out: TbrCatL 0’ Inhibition): 53%; inhibition at 5 µM (TbrCatL; read-out: TbrCatL 10’ Inhibition): 43% |
| Nc1ccc2ncnc(Nc3ccc(OCc4cccc(F)c4)c(Cl)c3)c2c1 [MMV688273] | – | – | – | – | Cruzain Inhibition 0’ (cruzain; [3]): -11%; Cruzain Inhibition 10’ (cruzain; [4]): -18%; TbrCatL Inhibition 0’ (TbrCatL; [3]): 0.9%; TbrCatL Inhibition 10’ (TbrCatL; [4]): -14% |
| O=C(CN1CCOCC1)Nc1ccc2ncnc(Nc3ccc(OCc4cccc(F)c4)c(Cl)c3)c2c1 [MMV688274] | 5.7% | 2.4% | 13% | 17% | – |
| CC1=Nc2ccc(Cl)cc2C(O)(c2ccc(C)cc2)N1CCN1CCCCC1 (stereo not drawn) [MMV688279] | -4.5% | 0.1% | -3% | -5% | – |
| CN1CCN(S(=O)(=O)c2ccc(-c3ccc4c(Nc5ncc(Cl)cn5)ccnc4c3)cc2)CC1 [MMV688283] | – | – | – | – | Cruzain Inhibition 0’ (cruzain; [5]): 30%; Cruzain Inhibition 10’ (cruzain; [6]): 31%; TbrCatL Inhibition 0’ (TbrCatL; [5]): 24%; TbrCatL Inhibition 10’ (TbrCatL; [6]): 18% |
| COc1ccc(-c2nnc3ccc(-c4cccc(C(C)C)c4)cn23)cc1OC [MMV688313] | -16% | -10% | -19% | -27% | – |
| CC(=O)NC[C@H]1CN(c2ccc(-c3ccc(CNCc4cn[nH]n4)cc3)c(F)c2)C(=O)O1 [MMV688327] | – | – | – | – | Cruzain Inhibition 0’ (cruzain; [5]): -3.5%; Cruzain Inhibition 10’ (cruzain; [6]): 4%; TbrCatL Inhibition 0’ (TbrCatL; [5]): -5.5%; TbrCatL Inhibition 10’ (TbrCatL; [6]): 6.4% |
| CC(=O)N1CCN(c2ccc(Oc3ccc(Cl)cc3O)cc2)CC1 [MMV688330] | – | – | – | – | Cruzain Inhibition 0’ (cruzain; [3]): -3%; Cruzain Inhibition 10’ (cruzain; [4]): -11%; TbrCatL Inhibition 0’ (TbrCatL; [3]): -8%; TbrCatL Inhibition 10’ (TbrCatL; [4]): -10% |
| Nc1nc(N)c2c3c(sc2n1)CN(Cc1ccccc1)CC3 [MMV688345] | 3.6% | 16% | -1% | 23% | – |
| COC(=O)c1ccc(F)cc1NS(=O)(=O)c1cccc(-c2cnn(Cc3ccccc3)c2)c1 [MMV688350] | – | – | – | – | Cruzain Inhibition 0’ (cruzain; [5]): -7%; Cruzain Inhibition 10’ (cruzain; [6]): -5%; TbrCatL Inhibition 0’ (TbrCatL; [5]): 2%; TbrCatL Inhibition 10’ (TbrCatL; [6]): -9% |
| O=C1[C@@H](Oc2ccccc2)[C@@H](c2ccc(Cl)cc2)N1CCn1cnc2c(NCc3ccccc3)ncnc21 [MMV688352] | 0% | 23% | 5% | 12% | – |
| COc1ccc(C2=NN(C3CCCCCC3)C(=O)C2(C)C)cc1OCc1ccccn1 [MMV688360] | – | – | – | – | Cruzain Inhibition 0’ (cruzain; [5]): 14%; Cruzain Inhibition 10’ (cruzain; [6]): 11%; TbrCatL Inhibition 0’ (TbrCatL; [5]): 13%; TbrCatL Inhibition 10’ (TbrCatL; [6]): 16% |

| SMILES | Cruzain 0’ Inhibition (cruzain; [1]) | Cruzain 10’ Inhibition (cruzain; [2]) | TbrCatL 0’ Inhibition (TbrCatL; 0’ (pre-incubation time)) | TbrCatL 10’ Inhibition (TbrCatL; 10’ (pre-incubation time)) | further results |
| --- | --- | --- | --- | --- | --- |
| c1cc(C2=NCCN2)cc(-c2cc(-c3ccc(C4=NCCN4)cc3)no2)c1 [MMV688361] | 4.5% | 7.4% | 1.9% | -3.5% | – |
| CC(C)(C)OC(=O)N1CCC(Cn2nc(-c3cnc4ccccc4c3)c3c(N)ncnc32)CC1 [MMV688364] | -14% | 0% | -10% | -15% | – |
| NCCN(C(=O)c1ccc(Cl)cc1Cl)c1ccc(OCc2ccc(Cl)cc2)cc1 [MMV688371] | – | – | – | – | Cruzain Inhibition 0’ (cruzain; [5]): 9%; Cruzain Inhibition 10’ (cruzain; [6]): 12%; TbrCatL Inhibition 0’ (TbrCatL; [5]): 6%; TbrCatL Inhibition 10’ (TbrCatL; [6]): 1% |
| O=C(Nc1ccc(F)c(-c2nc3ncc(-c4ccccc4)cc3[nH]2)c1)N1CCCC1 [MMV688372] | 4% | 4.3% | -5% | -11% | – |
| COc1cc(C2=NCCN2)ccc1-c1cn(-c2cccc(C3=NCCN3)c2)nn1 [MMV688407] | 2.2% | 21% | 14% | 36% | – |
| CC1=Nc2ccc(Cl)cc2C(c2ccccc2)N1CCNC(=O)CN(C)C (stereo not drawn) [MMV688410] | -0.5% | 3.8% | -4.7% | -3.5% | – |
| Nc1ncnc2c1c(-c1cnc3ccccc3c1)nn2CC1CCNCC1 [MMV688411] | -0.3% | 5.5% | 1.7% | 3.7% | – |
| CO[C@@H]1CN(c2ccc(C#CC3(O)CN4CCC3CC4)c(Cc3ccccc3)n2)C[C@H]1O (stereo partly drawn) [MMV688415] | – | – | – | – | Cruzain Inhibition 0’ (cruzain; [3]): -4%; Cruzain Inhibition 10’ (cruzain; [4]): 16%; TbrCatL Inhibition 0’ (TbrCatL; [3]): -8%; TbrCatL Inhibition 10’ (TbrCatL; [4]): 3% |
| CC(C)(C)OC(=O)N1CCN(c2nccc(-c3ccc(-c4ccc(Cl)cc4)s3)n2)CC1 [MMV688416] | – | – | – | – | Cruzain Inhibition 0’ (cruzain; [5]): 18%; Cruzain Inhibition 10’ (cruzain; [6]): 18%; TbrCatL Inhibition 0’ (TbrCatL; [5]): 22%; TbrCatL Inhibition 10’ (TbrCatL; [6]): 27% |
| CC(C)n1nc(-c2cc3c(Cl)cccc3[nH]2)c2c(N)ncnc21 [MMV688417] | 5.6% | -1.4% | -11% | -13% | – |
| CCCCN(CCCC)c1c(C#N)cc(S(=O)(=O)Nc2ccccc2)cc1C#N [MMV688467] | -2.2% | 1.8% | -4.5% | 8% | – |
| Nc1ncnc2n[nH]c(Cc3cccc4ccccc34)c12 [MMV688469] | -9% | 4.5% | -8% | -1.7% | – |
| CS(=O)(=O)N1CCC(CCn2nc(Cc3cccc4ccccc34)c3c(N)ncnc32)CC1 [MMV688470] | – | – | – | – | Cruzain Inhibition 0’ (cruzain; [5]): 10%; Cruzain Inhibition 10’ (cruzain; [6]): 11%; TbrCatL Inhibition 0’ (TbrCatL; [5]): 14%; TbrCatL Inhibition 10’ (TbrCatL; [6]): 9% |
| CC(C(=O)Nc1ccc2oc(-c3ccncc3)nc2c1)c1ccccc1 (stereo not drawn) [MMV688471] | – | – | – | – | Cruzain Inhibition 0’ (cruzain; [5]): 19%; Cruzain Inhibition 10’ (cruzain; [6]): 15%; TbrCatL Inhibition 0’ (TbrCatL; [5]): 26%; TbrCatL Inhibition 10’ (TbrCatL; [6]): 20% |
| CC(Oc1cccc(Cl)c1)C(=O)Nc1ccc2oc(-c3ccncc3)nc2c1 (stereo not drawn) [MMV688472] | – | – | – | – | Cruzain Inhibition 0’ (cruzain; [5]): 17%; Cruzain Inhibition 10’ (cruzain; [6]): 14%; TbrCatL Inhibition 0’ (TbrCatL; [5]): 13%; TbrCatL Inhibition 10’ (TbrCatL; [6]): 14% |
